# Laboratory results: patent US20140315883A1, “6H-IMIDAZO[1,5-a]PYRROLO[2,3-e]PYRAZINE COMPOUNDS” (ABBVIE INC., priority 2013, published 2014)
# Target: T1, Syk (Homo sapiens, UniProt P43405)
# T1 construct: Purified Syk catalytic domain (aa 356-635 with a C-terminal His-tag purified in-house); His-tag (C); made in house
# Test: In vitro Syk kinase activity measured by trFRET
# Assay type: biochemical
# Details: Syk catalytic domain, 0.001 mM ATP
# Protocol: In Vitro Syk Kinase Activity Measured by Time-Resolved Fluorescence Resonance Energy Transfer (trFRET)
# After about 60 min incubation at rt, the reaction was quenched by addition of EDTA (final concentration: 100 mM) and developed by addition of revelation reagents (final approximate concentrations: 30 mM HEPES pH 7.0, 0.06% BSA, 0.006% Tween-20, 0.24 M KF, 80 ng/mL PT66K (europium labeled anti-phosphotyrosine antibody cat #61T66KLB Cisbio, Bedford, Mass.) and 0.6 μg/mL SAXL (Phycolink streptavidin-allophycocyanin acceptor, cat #PJ25S, Prozyme, San Leandro, Calif.). The developed reaction was incubated in the dark either at about 4° C. for about 14 h or for about 60 min at rt, then read via a time-resolved fluorescence detector (Rubystar, BMG) using a 337 nm laser for excitation and monitoring emission wavelengths at 665 nm. Within the linear range of the assay, the observed signal at 665 nm was directly related to phosphorylated product and can be used to calculate the IC50 values.
row,IC50,Compound
1,10 to 30 nM,"COCCOc1ccc(-c2nc([C@H]3C[C@@H](O)CN3C(C)=O)n3c2cnc2[nH]ccc23)cc1 [F.1.21, 1-((2R,4R)-4-hydroxy-2-(3-(4-(2-methoxyethoxy)phenyl)-6H-imidazo[1,5-a]pyrrolo[2,3-e]pyrazin-1-yl)pyrrolidin-1-yl)ethanone]"
2,10 to 30 nM,"COc1ccc(-c2nc([C@H]3C[C@@H](O)CN3C(C)=O)n3c2cnc2[nH]ccc23)cc1C [F.1.22, 1-((2R,4R)-4-hydroxy-2-(3-(4-methoxy-3-methylphenyl)-6H-imidazo[1,5-a]pyrrolo[2,3-e]pyrazin-1-yl)pyrrolidin-1-yl)ethanone]"
3,10 to 30 nM,"CC(=O)N1C[C@H](O)C[C@@H]1c1nc(-c2ccc(OC(C)C)cc2)c2cnc3[nH]ccc3n12 [F.1.23, 1-((2R,4R)-4-hydroxy-2-(3-(4-isopropoxyphenyl)-6H-imidazo[1,5-a]pyrrolo[2,3-e]pyrazin-1-yl)pyrrolidin-1-yl)ethanone]"
4,> 100 nM,"CC(=O)N1C[C@H](O)C[C@@H]1c1nc(-c2ccc3c(c2)OCO3)c2cnc3[nH]ccc3n12 [F.1.24, 1-((2R,4R)-2-(3-(benzo[d][1,3]dioxol-5-yl)-6H-imidazo[1,5-a]pyrrolo[2,3-e]pyrazin-1-yl)-4-hydroxypyrrolidin-1-yl)ethanone]"
5,30 to 100 nM,"COc1ccc(-c2nc([C@H]3C[C@@H](O)CN3C(C)=O)n3c2cnc2[nH]ccc23)cc1F [F.1.26, 1-((2R,4R)-2-(3-(3-fluoro-4-methoxyphenyl)-6H-imidazo[1,5-a]pyrrolo[2,3-e]pyrazin-1-yl)-4-hydroxypyrrolidin-1-yl)ethanone]"
6,10 to 30 nM,"CC(=O)N1C[C@H](O)C[C@@H]1c1nc(-c2ccc(C3(O)CCC3)cc2)c2cnc3[nH]ccc3n12 [F.1.27, 1-((2R,4R)-4-hydroxy-2-(3-(4-(1-hydroxycyclobutyl)phenyl)-6H-imidazo[1,5-a]pyrrolo[2,3-e]pyrazin-1-yl)pyrrolidin-1-yl)ethanone]"
7,< 10 nM,"CCOc1ccc(-c2nc([C@H]3C[C@@H](O)CN3C(C)=O)n3c2cnc2[nH]ccc23)cc1C [F.1.28, 1-((2R,4R)-2-(3-(4-ethoxy-3-methylphenyl)-6H-imidazo[1,5-a]pyrrolo[2,3-e]pyrazin-1-yl)-4-hydroxypyrrolidin-1-yl)ethanone]"
8,10 to 30 nM,"CC(=O)N1C[C@H](O)C[C@@H]1c1nc(-c2ccc3c(c2)NCCO3)c2cnc3[nH]ccc3n12 [F.1.29, 1-((2R,4R)-2-(3-(3,4-dihydro-2H-benzo[b][1,4]oxazin-6-yl)-6H-imidazo[1,5-a]pyrrolo[2,3-e]pyrazin-1-yl)-4-hydroxypyrrolidin-1-yl)ethanone]"
9,10 to 30 nM,"CC(=O)N1C[C@H](O)C[C@@H]1c1nc(-c2ccc3c(c2)NCCC3)c2cnc3[nH]ccc3n12 [F.1.30, 1-((2R,4R)-4-hydroxy-2-(3-(1,2,3,4-tetrahydroquinolin-7-yl)-6H-imidazo[1,5-a]pyrrolo[2,3-e]pyrazin-1-yl)pyrrolidin-1-yl)ethanone]"
10,10 to 30 nM,CC(=O)N1C[C@H](O)C[C@@H]1c1nc(-c2ccc(OC3CC3)cc2)c2cnc3[nH]ccc3n12 [F.1.31]
11,10 to 30 nM,"(2R,4R)-2-(3-(chroman-6-yl)-6H-imidazo[1,5-a]pyrrolo[2,3-e]pyrazin-1-yl)-4-hydroxypyrrolidine-1-carboxamide [Example #6]"

# Test system: not given
# Test: not given
# Details: patients in clinical trials; cited from earlier work
row,Compound,risk for hypertension
1,"CCN(CC)CCNC(=O)c1c(C)[nH]c(/C=C2\C(=O)Nc3ccc(F)cc32)c1C [sunitibnib, sunitinib]",increased risk for hypertension
